Data set [1] deals with COS-1 cells. The data set is described as follows: Quantitation of chromatin condensation levels (S.D. value of PI intensity per pixel) in COS-1 cells. Type of data set: cell-based, monkey. On the procedure:
COS-1, HeLa cells (Japanese Collection of Research Bioresources, Osaka), MCF-7 (provided by H. Saya), A431 (provided by M. N. Fukuda), HEK293 (provided by […]), HCT116 (provided by T. Tomonaga), and SYF ([37]; provided by M. Okada and S. Nada) cells were cultured in Iscove's modified DME containing 5% fetal bovine serum (FBS). Cells were transiently transfected with 0.5 μg of plasmid vector using Trans IT Transfection reagent (Mirus) or with 1 μg of plasmid vector using linear polyethylenimine (25 kDa) (Polyscience, Inc.). For growth factor stimulation, COS-1 cells were starved under low serum conditions (0.05% FBS) for 24 h and restimulated with serum (5% FBS). For stimulation of endogenous SFKs, cells were treated with 3 mM Na3VO4 for 3 h, and SFK-mediated tyrosine phosphorylation was verified by treatment with 10 μM PP2 (SFK inhibitor; Calbiochem) or 100 nM wortmannin (PI3K inhibitor; Alomone Labs) for 21 h before Na3VO4 treatment. Na3VO4 was dissolved at 500 mM in 500 mM unbuffered HEPES before use. For preparation of stable transfectant clones, SYF cells transfected with c-Src-wt or Lyn-wt were selected in 333 μg/mL Zeocin (Invitrogen), and COS-1 cells were transfected with the BOSH2BGFP-N1 vector, which encodes GFP-tagged histone H2B ([39,40]; provided by H. Saya), were selected in 3 μg/mL blasticidin. Confocal and Nomarski differential-interference-contrast images were obtained using a Fluoview FV500 confocal laser scanning microscope with a 40×1.00 NA oil and a 100×1.35 NA oil immersion objective (Olympus, Tokyo) and an LSM 510 confocal laser scanning microscope with a 63×1.40 NA oil immersion objective (Zeiss), as described. One planar (xy) section slice (0.6-μm thickness) is shown in all experiments. In brief, cells were fixed with 4% paraformaldehyde for 20 min, and permeabilized in phosphate-buffered saline (PBS) containing 0.1% saponin and 3% bovine serum albumin at room temperature. Cells were subsequently reacted with an appropriate primary antibody for 1 h, washed with PBS containing 0.1% saponin, stained with FITC- or TRITC-conjugated secondary antibody for 1 h. […] To ensure no bleed-through from the fluorescein signal into the red channel, fluorescein and rhodamine were independently excited at 488 nm and 543 nm, respectively. PI was excited at 488 or 543 nm. Emission signals were detected between 505 and 525 nm for fluorescein, at more than 560 nm for rhodamine and more than 610 nm for PI [44]. Composite figures were prepared using Photoshop 5.0 and Illustrator 9.0 software (Adobe). For nuclear staining with anti-pTyr, anti-ATF-2 […]/71, and anti-histone H3K4me3 antibodies, cells were in situ extracted with 0.5% Triton X-100 at 4° C. for 3 min before fixation with 4% paraformaldehyde. For HP1α staining, cells were fixed in 100% methanol at -20° C. for 10 min followed by permeabilization for 30 min in PBS containing 0.1% Triton X-100 at room temperature. Cells were reacted with anti-HP1α antibody for 1 h at room temperature, washed with PBS four times, and stained with secondary antibody for 1 h. Fluorescence intensity plots of anti-histone H3K4me3, anti-ATF-2 […]/71 and anti-HP1α antibody and PI staining (see FIGS. 18B, 19B, and 20B, respectively) were generated using Fluoview version 4.3 software (Olympus, Tokyo). For detection of the kinase activity of nuclear SFKs, purified nuclei suspended in kinase buffer (50 mM HEPES-NaOH, pH7.4, 5 mM MgCl2, 5 mM MnCl2 and 0.1 mM Na3VO4) were preincubated with or without 10 μM PP2 at 30° C. for 30 min, and subsequently incubated with 5 or 10 μM ATP at 30° C. for 30 min, followed by cytocentrifugation at 200×g for 5 min and fixation with 4% paraformaldehyde. DNA was stained with 20 μg/mL PI and 200 μg/mL RNase A for 30 min. Mean fluorescence intensity of tyrosine-phosphorylated proteins in the nucleus was measured using the ImageJ software (National Institutes of Health). Confocal images of PI-stained nuclei were obtained as described above. […]

Data set [2] concerns COS-1 cells. The data set is described as follows: Cell cycle analysis: DNA content by flow cytometry in COS-1 cells. The note with it: H2O2 at 1, 10 and 20 mM for 1 h, FIGS. 11A-11D. Type of data set: cell-based, monkey. The method, then:
To obtain S- and G2-phase cells, COS-1 cells grown in Iscove's modified DME containing 5% FBS were blocked at S phase by exposure to 3 mM thymidine for 18 h. Cells were washed free of thymidine with PBS, and cultured for further 2 or 5 h. Cells were detached by trypsinization, fixed in 1.5% paraformaldehyde at 4° C. for 1 h, and then permeabilized with 70% ethanol at −30° C. for more than 1 h. Fixed cells were washed twice with PBS containing 3% FBS, and treated with 200 μg/ml RNase A and 50 μg/ml PI at 37° C. for 30 min to stain DNA. Cell cycle phase was analyzed by flow cytometry using a MoFlo cell sorter equipped with a 488-nm argon laser (Beckman Coulter). Cells transfected with Lyn-HA or NLS-Lyn-HA were cultured for 36 h, fixed and permeabilized as described above. Fixed cells were washed with PBS containing 3% FBS, stained with anti-HA antibody for 1 h, washed with PBS and stained with FITC-conjugated secondary antibody for 1 h. After DNA staining with PI as described above, cell cycle phase was analyzed in cells expressing Lyn-HA or NLS-Lyn-HA.
On the technique in general: A flow cytometer gives signals particle by particle.

For the compound `OO` [H2O2, hydrogen peroxide], in data set [1] (COS-1, H2O2 at 1, 10 and 20 mM for 1 h, FIG. 12), the “level of DNA condensation (S.D. value)” value is “corresponded to the degree of apoptosis”. In data set [2], the “apoptotic SubG1 cells (histograms of DNA content)” value is “induction of apoptotic SubG1 cells in a dose-dependent manner”.
`N#CC(=C(/N)Sc1ccccc1N)/C(C#N)=C(\N)Sc1ccccc1N` [U0126]: the “basal levels of chromatin condensation” value in data set [1] (cells not specified, U0126 concentration not given, data not shown) is “slightly decreased”.

(Values after patent US10072304B2, “Nuclear localization of Src-family tyrosine kinases is required for growth factor-induced euchromatinization” (National University Corporation Chiba University, priority 2009, dated 2018).)
